The nature of data set [1]: Solubility test at pH=4 from phosphate buffer pH 6 0.1M, by HPLC. In kind it is physicochemical. As to conditions: for solubility at 5 min: aqueous buffer, thermodynamic from solid, phosphate buffer pH 6 0.1M, HPLC, first figure of the S/pH cell, the pH of the sample is the second; for pH (of the solubility sample): second figure of the S/pH cell, pH noted for the solubility sample. On the procedure: The results for solubility, S, and pH are shown in the table below and are expressed in mg/ml.
A phosphate buffer, pH6, 0.1M, was prepared by adding 6.15 ml of 0.1M Na2HPO4 to 43.85 ml of 0.1M NaH2PO4. The solution was made up to 100 ml with filtered water using a Millipore system (trade mark).
Reference (Test Product in a Concentration in which the Latter is Soluble and which Acts as an Internal Reference)
About 0.2 mg (in a boat) was weighed out exactly and diluted in 1 ml of H2O/CH3CN: (50:50), i.e. 0.2 mg/ml, then the sample was subjected to ultrasound for 5 minutes.
About 4 mg (in a boat) was weighed out exactly and diluted in 400 μl (i.e. 10 mg/ml) of pH6 phosphate buffer (0.1M), then the sample was subjected to ultrasound for 5 minutes.
The pH was noted and if the pH was below 4, 1 μl of NaOH 1N was added (from 1 μl in 1 μl) until the pH was more than 4, then the pH was noted again. The solution (0.45 μm) was filtered then if necessary diluted with the phosphate buffer pH6. (If the product re-precipitated after diluting, the diluted sample was ignored, the mother solution was used and the solubility was determined at a wavelength other than λmax, to avoid saturating the signal.
The solubility of the compound was then determined by HPLC under the following conditions:
Instrument: Agilent 1100 chromatograph
Column temperature: 30° C. Flow rate: 0.8 ml/min Detection: λ=230 nm Injection volume: 5 μl

For data set [2] the following is noted: at a pH of 3; cited from earlier work.

In brackets after ≈: the same amount, converted by molar mass. Structures can show the parent of a compound that is named as a salt.

Regarding `CCCCc1cc2ccc(C)cn2c1C(=O)c1ccc(CCCN(CCC)CCC)cc1` [compound 43, (2-butyl-6-methylindolizin-3-yl){4-[3-(dipropylamino)propyl]phenyl}methanone hydrochloride], in data set [1], the solubility at 5 min came to 4460 µg/mL and the “pH (of the solubility sample)” value stood at 5.65. For `CCCN(CCC)CCCCc1ccc(C(=O)c2c(CC)cc3ccccn23)cc1` [compound 11, {4-[4-(dipropylamino)butyl]phenyl}(2-ethylindolizin-3-yl)methanone hydrochloride] the same measures were above 10000 µg/mL and 5.82. For the compound `CCCCN(CCCC)CCCCc1ccc(C(=O)c2c(CC)cc3ccccn23)cc1` [compound 21, {4-[4-(dibutylamino)butyl]phenyl}(2-ethylindolizin-3-yl)methanone oxalate], in data set [1], the solubility at 5 min came out at 6900 µg/mL and the “pH (of the solubility sample)” value is on record as 4.08. For `CCCN(CCC)CCCCc1ccc(C(=O)c2c(C)cc3ccccn23)cc1` [compound 15, {4-[4-(dipropylamino)butyl]phenyl}(2-methylindolizin-3-yl)methanone hydrochloride] the same measures were 1560 µg/mL and 6.33. For `CCCNCCCCc1ccc(C(=O)c2c(CCC)cc3ccccn23)cc1.Cl` [compound 36, {4-[4-(propylamino)butyl]phenyl}(2-propylindolizin-3-yl)methanone hydrochloride] the same measures were 2240 µg/mL and 6.3. For `CCCN(CC)CCCc1ccc(C(=O)c2c(C)cc3ccccn23)cc1` [compound 26, (4-{3-[ethyl(propyl)amino]propyl}phenyl)(2-methylindolizin-3-yl)methanone hydrochloride] the same measures were 1490 µg/mL and 7.14. As to `CCCCN(CCCC)CCCCc1ccc(C(=O)c2c(CCC)cc3ccccn23)cc1` [compound 22, {4-[4-(dibutylamino)butyl]phenyl}(2-propylindolizin-3-yl)methanone oxalate], in data set [1], the solubility at 5 min was found to be 4080 µg/mL and the “pH (of the solubility sample)” value worked out at 4.58. Turning to `CCCCc1oc2ccc(NS(C)(=O)=O)cc2c1C(=O)c1ccc(OCCCN(CCCC)CCCC)cc1` [Dronedarone], the “solubility in water S” value in data set [2] was 247 µg/mL (≈ 444 µM). On to `CCCN(CCC)CCCCc1ccc(C(=O)c2c(C(C)C)cc3ccccn23)cc1` [compound 14, {4-[4-(dipropylamino)butyl]phenyl}(2-isopropylindolizin-3-yl)methanone oxalate], for which, in data set [1], the solubility at 5 min came out at 2330 µg/mL and the “pH (of the solubility sample)” value came to 4.10. For `CCCCN(CCCC)CCCc1ccc(C(=O)c2c(CC)cc3ccccn23)cc1` [compound 18, {4-[3-(dibutylamino)propyl]phenyl}(2-ethylindolizin-3-yl)methanone hydrochloride], in data set [1], the solubility at 5 min was 6510 µg/mL and the “pH (of the solubility sample)” value is 5.42. For `CCCc1cc2ccccn2c1C(=O)c1ccc(CCCCN(CC)CCC)cc1` [compound 32, (4-{4-[ethyl(propyl)amino]butyl}phenyl)(2-propylindolizin-3-yl)methanone hydrochloride], in that order: 5640 µg/mL and 5.60. For `CCCN(CC)CCCCc1ccc(C(=O)c2c(C)cc3ccccn23)cc1` [compound 28, (4-{4-[ethyl(propyl)amino]butyl}phenyl)(2-methylindolizin-3-yl)methanone hydrochloride], in that order: 1540 µg/mL and 7.01.

On to `CCCCc1cc2ccccn2c1C(=O)c1ccc(CCCN2C[C@@H](C)N(C)[C@@H](C)C2)cc1` [compound 40, (2-butylindolizin-3-yl)(4-{3-[(3R,5S)-3,4,5-trimethylpiperazin-1-yl]propyl}phenyl)methanone hydrochloride], for which, in data set [1], the solubility at 5 min was 9930 µg/mL and the “pH (of the solubility sample)” value is reported as 4.3. For `CCCCc1cc2ccccn2c1C(=O)c1ccc(CCCCN(CCCC)CCCC)cc1` [compound 20, (2-butylindolizin-3-yl){4-[4-(dibutylamino)butyl]phenyl}methanone oxalate], in that order: 2950 µg/mL and 4.02.

Take `CCCN(CC)CCCc1ccc(C(=O)c2c(CC)cc3ccccn23)cc1` [compound 24, (2-ethylindolizin-3-yl)(4-{3-[ethyl(propyl)amino]propyl}phenyl)methanone oxalate]: in data set [1], the solubility at 5 min was determined as 5920 µg/mL and the “pH (of the solubility sample)” value is reported as 4.51.

As for `CCCCc1cc2ccccn2c1C(=O)c1ccc(CCCN2CCCCC2)cc1` [compound 42, (2-butylindolizin-3-yl)[4-(3-piperidin-1-ylpropyl)phenyl]methanone oxalate], in data set [1], the solubility at 5 min worked out at 1660 µg/mL and the “pH (of the solubility sample)” value was found to be 5.18.

With `CCCCc1cc2ccc(CC)cn2c1C(=O)c1ccc(CCCN(CCC)CCC)cc1` [compound 44, (2-butyl-6-ethylindolizin-3-yl){4-[3-(dipropylamino)propyl]phenyl}methanone hydrochloride], in data set [1], the solubility at 5 min is above 10000 µg/mL and the “pH (of the solubility sample)” value stood at 6.05.

As for `CCCN(CC)CCCCc1ccc(C(=O)c2c(C(C)C)cc3ccccn23)cc1` [compound 27, (4-{4-[ethyl(propyl)amino]butyl}phenyl)(2-isopropylindolizin-3-yl)methanone oxalate], in data set [1], the solubility at 5 min turned out to be 2170 µg/mL and the “pH (of the solubility sample)” value was determined as 6.5. For `CCCc1cc2ccccn2c1C(=O)c1ccc(CCCN(CC)CCC)cc1` [compound 29, (4-{3-[ethyl(propyl)amino]propyl}phenyl)(2-propylindolizin-3-yl)methanone hydrochloride] the same measures were above 10000 µg/mL and 5.94. For `CCCc1cc2ccccn2c1C(=O)c1ccc(CCCN(CCC)CCC)cc1` [compound 9, {4-[3-(dipropylamino)propyl]phenyl}(2-propylindolizin-3-yl)methanone hydrochloride] the same measures were 5290 µg/mL and 5.82.

(Values after patent publication US7799799B2, “Indolizine derivatives, method for preparing same, and therapeutic compositions comprising same” (Sanofi-Aventis, priority 2005, dated 2010).)
